Test results published in patent US5641779A, “Selective ligands of 5-HT1D -5-HT1B receptors derived from indolepiperazine which are useful medicaments” (Pierre Fabre Medicament, priority 1992, dated 1997).
Structures can show the parent of a compound that is named as a salt. Where two headings read alike, the source gives them in different places.

Legend:
[1] = target: T1, D2-Dopaminergic receptor (Canis lupus familiaris, UniProt Q9GJU1); assay: D2-Dopaminergic receptor binding (Nisnik et al.); details: 3H-YM-09159-2 (title of cited method); read-out: IC50 D2
T1 construct: from tissue
Method: (§1) The IC50 values of the various products which form part of this invention for the other receptors were measured according to the techniques described in the following references:
Nisnik H. B., Grigoriadis D. E., Pri-Bar I., Buckman O. and Seeman P. Dopamine D2 receptors selectively labeled by a benzamide neuroleptic: ^3 H-YM-09159-2 Naunyn-Schmiedeberg's Arch. Pharmacol. 329, 333-343, 1985.

[2] = target: T2, 5-HT2 (Rattus norvegicus, UniProt P14842); assay: 5-HT2 receptor binding (Leysen et al.); details: 3H-ketanserine (title of cited method)
T2 construct: from tissue
Method: as §1
Leysen J. E., Niemegeers C. J. E., Van Nueten J. M. and Laduron P.M. ^3 H-ketanserine (R 41468), a selective ^3 H ligand for serotonin2 receptor binding sites. Mol. Pharmacol., 21, 301-330, 1982.

[3] = target: T3, 5-HT1C (Sus scrofa, UniProt K7GSR7); assay: 5-HT1C receptor binding (Pazos et al.); set-up: species or system porcine
T3 construct: serotonergic ligands to the porcine choroid plexus; from tissue; host or cells: porcine choroid plexus
T3 sequence (K7GSR7 1-457): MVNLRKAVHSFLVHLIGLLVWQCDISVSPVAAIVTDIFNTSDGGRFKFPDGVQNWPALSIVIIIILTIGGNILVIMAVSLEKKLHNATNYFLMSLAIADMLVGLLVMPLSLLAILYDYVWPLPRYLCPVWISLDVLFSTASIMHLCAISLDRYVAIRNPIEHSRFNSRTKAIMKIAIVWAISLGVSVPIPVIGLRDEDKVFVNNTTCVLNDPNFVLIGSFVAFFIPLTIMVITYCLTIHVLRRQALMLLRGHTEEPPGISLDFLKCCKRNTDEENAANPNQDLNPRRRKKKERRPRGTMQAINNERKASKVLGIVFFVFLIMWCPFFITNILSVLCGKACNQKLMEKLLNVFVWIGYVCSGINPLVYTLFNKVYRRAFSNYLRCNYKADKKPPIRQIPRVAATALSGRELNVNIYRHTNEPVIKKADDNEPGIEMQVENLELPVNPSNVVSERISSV
Method: as §1
Pazos A., Hoyer D. and Palacios J. M. The binding sites of serotonergic ligands to the porcine choroid plexus: characterization of a new type of serotonin recognition site. Eur. J. Pharmacol., 106, 539-546, 1985.

[4] = target: T4, 5-HT1A (Rattus norvegicus, UniProt P19327); assay: 5-HT1A receptor binding (Peroutka); details: rat frontal cortex (title of cited method); mean; read-out: IC50 5-HT1A mean
T4 construct: from tissue; host or cells: rat frontal cortex
T4 sequence (P19327 1-422): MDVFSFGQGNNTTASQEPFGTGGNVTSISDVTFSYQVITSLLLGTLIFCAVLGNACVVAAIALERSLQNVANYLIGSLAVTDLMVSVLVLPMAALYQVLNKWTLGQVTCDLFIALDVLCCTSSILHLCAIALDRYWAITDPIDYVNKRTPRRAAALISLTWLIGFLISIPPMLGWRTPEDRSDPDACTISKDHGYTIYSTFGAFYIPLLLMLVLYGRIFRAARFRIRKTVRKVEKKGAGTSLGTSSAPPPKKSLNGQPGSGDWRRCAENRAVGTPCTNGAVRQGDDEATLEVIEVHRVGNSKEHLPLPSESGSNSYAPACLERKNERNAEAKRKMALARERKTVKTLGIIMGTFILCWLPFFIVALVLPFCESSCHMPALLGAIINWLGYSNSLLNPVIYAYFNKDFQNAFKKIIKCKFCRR
Method: as §1
(§2) Peroutka S. J. Pharmacological differentiation and characterization of 5-HT1A, 5-HT1B and 5-HT1C binding sites in rat frontal cortex. J. Neurochem., 45, 529-540, 1986.

[5] = tested on: 5-HT1D; assay: Affinity for 5-HT1D receptors (3H-5-HT binding, sheep caudate nuclei membranes); details: Ratio of the IC50 values for the 5HT1A and 5HT1D receptors
Method: This study is carried out according to the technique described by Herrick-Davis and Titeler (J. Neurochem. 50, 1624-1631, 1988).
Preparation of the membranes:
Sheep brains are removed at the local abattoir and transported in ice. The caudate nuclei are removed, weighed and homogenized with a Polytron for 20 sec. (speed 6-7) in 20 volumes of Tris-HCl 50 mM, pH 7.7. The homogenate is centrifuged for 10 min at 48,000 g with an L5 50E centrifuge (Beckman).
The pellet, taken up in 20 volumes of Tris-HCl 50 mM, pH 7.7, is placed in a water bath at 37° C. for 10 min and then recentrifuged for 10 min at 48,000 g. The pellet then obtained is immediately frozen in fractions containing 0.5 g of tissue.
The pellet is defrosted and homogenized with a Dounce in 80 volumes of Tris-HCl, 50 mM pH 7.7 containing 4 mM CaCl2, 10μM of pargyline and 0.1% of ascorbic acid.
Binding is carried out at 25° C. by incubating for 30 min:
0.1 ml of buffer or 10 μM, as final concentration, of sumatriptan, in order to obtain the non-specific binding, or the product which forms part of this invention at various concentrations (between 10^-10 and 10^-6 M).
0.8 ml of membrane suspension
0.1 ml of ^3 H-5-HT (15 to 30 Ci/mM, New England Nuclear France)
The incubation is brought to an end by rapid filtration through GF/B filters and rinsing with 3 times 3 ml of ice-cold buffer, using a harvester manufactured by Brandel which makes it possible to filter 48 samples. The filters are introduced into vials containing 4 ml of emulsifier-safe liquid scintillant (Packard) and the radioactivity measured with a Tri-carb 4640 counter (Packard).
The IC50 (concentration which inhibits the specific affinity by 50%) is determined graphically.

[6] = target: α1-Adrenergic receptor; assay: α1-Adrenergic receptor binding (Leslie Morrow and Creese); details: rat brain (title of cited method)
Method: as §1
Leslie Morrow A. and Creese I. Characterization of α1-adrenergic receptor subtypes in rat brain: a reevaluation of ^3 H-WB4101 and ^3 H prazosin binding. Mol. Pharmacol. 29, 321-330, 1986.

[7] = target: T5, α2-Adrenergic receptor (Rattus norvegicus, UniProt P22909); assay: α2-Adrenergic receptor binding (Mallard et al.); details: rat brain (title of cited method); read-out: IC50 α2
T5 construct: in the rat brain; from tissue; host or cells: rat brain
T5 sequence (P22909 1-465): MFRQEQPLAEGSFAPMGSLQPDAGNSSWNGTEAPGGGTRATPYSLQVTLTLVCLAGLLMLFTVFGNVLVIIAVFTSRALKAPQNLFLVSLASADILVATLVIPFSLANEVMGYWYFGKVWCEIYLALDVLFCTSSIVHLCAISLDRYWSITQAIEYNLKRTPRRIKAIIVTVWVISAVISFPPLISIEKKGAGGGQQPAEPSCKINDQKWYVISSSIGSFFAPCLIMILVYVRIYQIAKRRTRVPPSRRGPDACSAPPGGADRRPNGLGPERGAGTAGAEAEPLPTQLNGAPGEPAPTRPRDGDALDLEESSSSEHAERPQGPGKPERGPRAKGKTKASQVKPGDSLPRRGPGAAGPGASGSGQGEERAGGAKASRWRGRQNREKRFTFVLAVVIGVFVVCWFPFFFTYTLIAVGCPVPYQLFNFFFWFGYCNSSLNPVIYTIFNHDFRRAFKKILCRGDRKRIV
Method: as §1
Mallard N. J., Tyacke R., Hudson A. L. and Nutt D. S. Comparative binding studies of ^3 -idazoxan and ^3 -RX821002 in the rat brain. Brit. J. Pharmacol. 102, 221P, 1991.

[8] = target: T6, 5-HT1B (Rattus norvegicus, UniProt P28564); assay: 5-HT1B receptor binding (Peroutka)
T6 construct: from tissue; host or cells: rat frontal cortex
Method: as §1, §2

[9] = porcine choroid plexus (title of cited method), read-out: IC50 5-HT1C
[10] = rat frontal cortex (title of cited method), mean, read-out: IC50 5-HT1B mean

T6 sequence (P28564 whole entry): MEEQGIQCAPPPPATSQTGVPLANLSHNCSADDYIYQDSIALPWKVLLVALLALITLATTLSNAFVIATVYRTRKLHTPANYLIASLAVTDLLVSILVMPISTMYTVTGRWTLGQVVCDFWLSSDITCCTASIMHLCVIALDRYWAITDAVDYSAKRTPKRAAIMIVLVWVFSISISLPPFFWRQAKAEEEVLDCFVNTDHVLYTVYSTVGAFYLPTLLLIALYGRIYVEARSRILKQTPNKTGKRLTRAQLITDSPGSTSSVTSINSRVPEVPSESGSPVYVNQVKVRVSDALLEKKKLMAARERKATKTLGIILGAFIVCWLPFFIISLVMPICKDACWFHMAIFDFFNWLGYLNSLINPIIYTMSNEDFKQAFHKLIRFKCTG
T1 sequence (Q9GJU1 whole entry): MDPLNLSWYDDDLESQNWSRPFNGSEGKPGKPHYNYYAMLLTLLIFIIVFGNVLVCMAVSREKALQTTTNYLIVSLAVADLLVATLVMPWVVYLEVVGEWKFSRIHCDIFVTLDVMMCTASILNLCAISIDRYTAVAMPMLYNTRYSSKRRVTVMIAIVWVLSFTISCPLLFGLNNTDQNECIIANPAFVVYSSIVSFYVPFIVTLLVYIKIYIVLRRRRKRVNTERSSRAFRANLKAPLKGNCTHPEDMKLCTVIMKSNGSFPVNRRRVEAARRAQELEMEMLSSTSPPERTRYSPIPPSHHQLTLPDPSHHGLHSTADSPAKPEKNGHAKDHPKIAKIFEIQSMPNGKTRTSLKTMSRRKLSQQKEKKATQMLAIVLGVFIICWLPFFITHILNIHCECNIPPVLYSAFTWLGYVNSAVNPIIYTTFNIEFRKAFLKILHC
T2 sequence (P14842 whole entry): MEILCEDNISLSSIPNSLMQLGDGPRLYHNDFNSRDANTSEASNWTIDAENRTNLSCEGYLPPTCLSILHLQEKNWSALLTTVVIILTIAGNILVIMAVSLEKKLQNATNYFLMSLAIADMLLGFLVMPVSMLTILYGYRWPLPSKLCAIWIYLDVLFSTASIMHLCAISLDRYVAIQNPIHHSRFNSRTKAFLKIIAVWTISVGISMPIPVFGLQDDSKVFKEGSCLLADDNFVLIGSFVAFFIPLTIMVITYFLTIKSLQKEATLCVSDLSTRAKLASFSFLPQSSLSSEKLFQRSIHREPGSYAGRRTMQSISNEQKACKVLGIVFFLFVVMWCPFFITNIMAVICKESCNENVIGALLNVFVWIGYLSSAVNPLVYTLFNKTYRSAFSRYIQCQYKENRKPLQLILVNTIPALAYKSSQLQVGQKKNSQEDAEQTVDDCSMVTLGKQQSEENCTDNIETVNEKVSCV

Structure (SMILES) | IC50 [1] [nM] | IC50 [2] [nM] | IC50 [3, 9] [nM] | IC50 [4] [nM] | Ratio 1A/1D [5] | IC50 [6] [nM] | IC50 [7] [nM] | IC50 [8, 10] [nM] | IC50 [3] [nM] | IC50 [8] [nM]
COc1cccc(N2CCN(C(=O)COc3ccc4[nH]cc(CCNC(=O)OC(C)(C)C)c4c3)CC2)c1 [Example 6A, 4-(m-Methoxyphenyl)-1-(tert-butoxycarbamate-tryptamine-5-carboxymethyl)piperazide hydrochloride] | > 1000 | > 1000 | > 1000 | 100 | 6.3 | > 1000 | > 1000 | 1.5 |  | 
CN1CCN(C(=O)COc2ccc3[nH]cc(CCN)c3c2)CC1 [Example 7, 4-Methyl-1-(tryptamine-5-O-carboxymethyl)piperazide hydrochloride] | > 1000 | > 1000 |  | > 1000 | > 1.4 | > 1000 | > 1000 | 355 | > 1000 | 
CSc1ccc2c(c1)C(N1CCN(C(=O)COc3ccc4[nH]cc(CCNC(=O)OC(C)(C)C)c4c3)CC1)Cc1ccccc1S2 (stereo not shown) [Example 8, 1-[(tert-Butoxycarbamate)tryptamine-5-O-carboxymethyl]-4-[10-(8-methylthio-10-11-dihydrodibenzo[b, f]thiepine)]piperazide hydrochloride] |  |  |  | > 1000 |  |  |  | 1000 |  | 
Cc1ccccc1N1CCN(C(=O)C(Oc2ccc3[nH]cc(CCN)c3c2)c2ccccc2)CC1 (stereo not drawn) [Example 9, 4-O-Tolyl-1-[tryptamine-5-O-(α-phenylcarboxymethyl)]piperazide hydrochloride] | > 1000 | 550 | 600 | 325 | 1.7 | > 1000 | > 1000 | 85 |  | 
Cc1ccccc1N1CCN(C(=O)C(C)Oc2ccc3[nH]cc(CCN)c3c2)CC1 (stereo not drawn) [Example 11, 4-o-Tolyl-1-[tryptamine-5-O-(α-methylcarboxymethyl)]piperazide hydrochloride] |  | > 1000 |  | 125 | 20.8 |  |  |  | 1000 | 5.5
Cc1ccccc1N1CCN(C(=O)COc2ccc3[nH]cc(CCNC(=O)OC(C)(C)C)c3c2)CC1 [ID, 4-o-Tolyl-1-(tert-butoxycarbamate-tryptamine-5-O-carboxymethyl) piperazide hydrochloride] | > 100 | 2000 |  | 120 | 18.5 | 8500 | 7000 |  |  | 
